Source: patent US9247750B2, “Polyenylcyclopropanecarboxylic esters with high insecticidal activity” (Endura S.P.A., priority 2007, dated 2016)

Tests used:
Format in all cases: in vivo
Aedes aegypti [1] = experiment: Insecticide effectiveness in the vapour phase against mosquitoes, impregnated paper unit in 20 m^3 room (Example 5); details: 5 mg/unit; for % mortality 24 h: 24th hour from start of test; for % Knock-down 8 h: at end of 8th hour; for Knock-down time KT10 / Knock-down time KT50 / Knock-down time KT90: average of 3 cages
Procedure: (§1) Test units consisting of a paper support 20 cm×10 cm in size were impregnated with the compound of example 3 and, for comparative purposes, with the reference compounds transfluthrin and metofluthrin, at an amount of 5.00 mg/unit for each compound (pure).
(§2) Using a common laboratory stand, the test unit was placed at a height of about 30 cm from the ground along one side of a 20 m^3 room (L 3.00 m×D 2.49 m×H 2.69 m). In order to homogenize the insecticidal air within the room, a small electric fan was placed on the floor diagonal to the surface of the unit, in the is nearest corner at a distance of about 50 cm from the unit. Three metal cages (L 8.4 cm×Ø 8.0 cm×mesh 1.0 mm) for every mosquito species, each containing 20 3-4 day old individuals of mixed sex, were placed along the other three sides of the room, at a height of 1.80 m from the ground and at a distance of 0.45 m from the respective walls. During the test the room was kept closed and temperature and humidity were controlled (T 23-26° C., RH 49-61%).
(§3) The fan was switched on and left on for 8 continuous hours. The times needed to reach 10%, 50% and 90% insect knock-down (KT10, KT50 and KT90, respectively) were recorded.
(§4) Every 2 hours and up to the 6th hour after the fan was switched on, new cages were introduced containing insects (set of 3 cages for each species).
(§5) At the end of the 8th hour, the percentage of insects knocked down in all the cages was determined, then the insects were removed from the room and transferred into an uncontaminated atmosphere within closed containers containing a sugary solution. The percentage mortality was recorded at the 24th hour from the start of the test.
(§6) The results obtained are summarized in tables 1 and 2 and the data are averages for the 3 cages.

Culex quinquefasciatus [2] = experiment: as above; details: 5 mg/unit; for % mortality 24 h: 24th hour from start of test; for % Knock-down 8 h: at end of 8th hour; for Knock-down time KT10 / Knock-down time KT50 / Knock-down time KT90: average of 3 cages
Procedure: as §1, §2, §3, §4, §5, §6

Blattella germanica = experiment: Effectiveness of residual insecticide on surfaces (glazed tiles) against cockroaches (Example 6); details: for Time to reach 100% knock-down followed by death: 50 mg/m^2 on glazed tiles
Procedure: Solutions of the compound of example 3 in acetone and, for comparison, of the reference compounds Transfluthrin and Metofluthrin were applied from a distance of 12 cm onto glazed tiles (Ostara model, 15×15 cm=225 cm^2) by means of a suitable glass sprayer, so as to obtain an applied amount of pure compound equal to 50 mg/m^2. After treatment the tiles were transferred to and maintained in a closed test room at controlled temperature and humidity (24-25° C., RH 50-60%). Glass rings (H 5.5 cm×Ø 9.5 cm), with their internal surface treated with talc, and each containing 5 cockroaches, were positioned at the centre of the tiles for each of the assessment times of 24 hours, 3, 7, 10 and 14 days following treatment. For each assessment day, the insects were maintained on the surface for 24 hours and the time (hours, minutes) necessary to attain 100% knock-down followed by death, or percentage knock-down at the end of 24 hours, were recorded.

Aedes aegypti [3] = experiment: Insecticide effectiveness in the vapour phase against mosquitoes, impregnated paper unit in 20 m^3 room (Example 9); details: 5 mg/unit; for % mortality 24 h: 24th hour from start of test; for % Knock-down 8 h: at end of 8th hour; for Knock-down time KT10 / Knock-down time KT50 / Knock-down time KT90: average of 3 cages
Procedure: as §2, with “Test units consisting of a paper support 20 cm×10 cm in size were impregnated with the compound of examples 3, 7 and 8 and, for comparative purposes, with the reference compounds transfluthrin and metofluthrin, at an amount of 5.00 mg/unit for each compound (pure). Using” for “Using”, “the” for “the is”, “49-61%). The fan was switched on and left on for 8 continuous hours. The times needed to reach 10%, 50% and 90% insect knock-down (KT10, KT50 and KT90, respectively) were recorded.” for “49-61%).”
as §4, §5, §6

Culex quinquefasciatus [4] = experiment: as above; details: 5 mg/unit; for % mortality 24 h: 24th hour from start of test; for % Knock-down 8 h: at end of 8th hour; for Knock-down time KT10 / Knock-down time KT50 / Knock-down time KT90: average of 3 cages
Procedure: as §2, with “Test units consisting of a paper support 20 cm×10 cm in size were impregnated with the compound of examples 3, 7 and 8 and, for comparative purposes, with the reference compounds transfluthrin and metofluthrin, at an amount of 5.00 mg/unit for each compound (pure). Using” for “Using”, “the” for “the is”, “49-61%). The fan was switched on and left on for 8 continuous hours. The times needed to reach 10%, 50% and 90% insect knock-down (KT10, KT50 and KT90, respectively) were recorded.” for “49-61%).”
as §4, §5, §6

C=CC=C[C@@H]1[C@@H](C(=O)OCc2c(F)c(F)cc(F)c2F)C1(C)C (mixture of isomers) [Example 3, 2,3,5,6-tetrafluorobenzyl(1R,3R)-3-((E/Z)-Buta-1,3-dienyl)-2,2-dimethylcyclopropane-1-carboxylate]
% mortality 24 h (Aedes aegypti [1]; insect exposure after 0 hours): 100%
% Knock-down 8 h (Aedes aegypti [1]; insect exposure after 0 hours): 100%
Knock-down time KT10 (Aedes aegypti [1]; insect exposure after 0 hours): 16 min
Knock-down time KT50 (Aedes aegypti [1]; insect exposure after 0 hours): 19 min
Knock-down time KT90 (Aedes aegypti [1]; insect exposure after 0 hours): 25 min
% mortality 24 h (Aedes aegypti [1]; insect exposure after 2 hours): 100%
% Knock-down 8 h (Aedes aegypti [1]; insect exposure after 2 hours): 100%
Knock-down time KT10 (Aedes aegypti [1]; insect exposure after 2 hours): 4 min
Knock-down time KT50 (Aedes aegypti [1]; insect exposure after 2 hours): 6 min
Knock-down time KT90 (Aedes aegypti [1]; insect exposure after 2 hours): 9 min
% mortality 24 h (Aedes aegypti [1]; insect exposure after 4 hours): 100%
% Knock-down 8 h (Aedes aegypti [1]; insect exposure after 4 hours): 100%
Knock-down time KT10 (Aedes aegypti [1]; insect exposure after 4 hours): 4 min
Knock-down time KT50 (Aedes aegypti [1]; insect exposure after 4 hours): 6 min
Knock-down time KT90 (Aedes aegypti [1]; insect exposure after 4 hours): 11 min
% mortality 24 h (Culex quinquefasciatus [2]; insect exposure after 0 hours): 100%
% Knock-down 8 h (Culex quinquefasciatus [2]; insect exposure after 0 hours): 100%
Knock-down time KT10 (Culex quinquefasciatus [2]; insect exposure after 0 hours): 20 min
Knock-down time KT50 (Culex quinquefasciatus [2]; insect exposure after 0 hours): 23 min
Knock-down time KT90 (Culex quinquefasciatus [2]; insect exposure after 0 hours): 31 min
% mortality 24 h (Culex quinquefasciatus [2]; insect exposure after 2 hours): 100%
% Knock-down 8 h (Culex quinquefasciatus [2]; insect exposure after 2 hours): 100%
Knock-down time KT10 (Culex quinquefasciatus [2]; insect exposure after 2 hours): 6 min
Knock-down time KT50 (Culex quinquefasciatus [2]; insect exposure after 2 hours): 8 min
Knock-down time KT90 (Culex quinquefasciatus [2]; insect exposure after 2 hours): 12 min
% mortality 24 h (Culex quinquefasciatus [2]; insect exposure after 4 hours): 100%
% Knock-down 8 h (Culex quinquefasciatus [2]; insect exposure after 4 hours): 100%
Knock-down time KT10 (Culex quinquefasciatus [2]; insect exposure after 4 hours): 6 min
Knock-down time KT50 (Culex quinquefasciatus [2]; insect exposure after 4 hours): 10 min
Knock-down time KT90 (Culex quinquefasciatus [2]; insect exposure after 4 hours): 18 min
Time to reach 100% knock-down followed by death (Blattella germanica; 1 day after treatment): 15′ minutes
Time to reach 100% knock-down followed by death (Blattella germanica; 3 days after treatment): 15′ minutes
Time to reach 100% knock-down followed by death (Blattella germanica; 7 days after treatment): 15′ minutes
Time to reach 100% knock-down followed by death (Blattella germanica; 10 days after treatment): 15′ minutes
Time to reach 100% knock-down followed by death (Blattella germanica; 14 days after treatment): 15′ minutes
time of exposure to total knock-down (100%) (Blattella germanica; table 3): ≤ 15 min
% mortality 24 h (Aedes aegypti [3]; insect exposure after 0 hours): 100%
% Knock-down 8 h (Aedes aegypti [3]; insect exposure after 0 hours): 100%
Knock-down time KT10 (Aedes aegypti [3]; insect exposure after 0 hours): 16 min
Knock-down time KT50 (Aedes aegypti [3]; insect exposure after 0 hours): 20 min
Knock-down time KT90 (Aedes aegypti [3]; insect exposure after 0 hours): 26 min
% mortality 24 h (Aedes aegypti [3]; insect exposure after 2 hours): 100%
% Knock-down 8 h (Aedes aegypti [3]; insect exposure after 2 hours): 100%
Knock-down time KT10 (Aedes aegypti [3]; insect exposure after 2 hours): 5 min
Knock-down time KT50 (Aedes aegypti [3]; insect exposure after 2 hours): 8 min
Knock-down time KT90 (Aedes aegypti [3]; insect exposure after 2 hours): 11 min
% mortality 24 h (Aedes aegypti [3]; insect exposure after 4 hours): 100%
% Knock-down 8 h (Aedes aegypti [3]; insect exposure after 4 hours): 100%
Knock-down time KT10 (Aedes aegypti [3]; insect exposure after 4 hours): 5 min
Knock-down time KT50 (Aedes aegypti [3]; insect exposure after 4 hours): 8 min
Knock-down time KT90 (Aedes aegypti [3]; insect exposure after 4 hours): 12 min
% mortality 24 h (Culex quinquefasciatus [4]; insect exposure after 0 hours): 100%
% Knock-down 8 h (Culex quinquefasciatus [4]; insect exposure after 0 hours): 100%
Knock-down time KT10 (Culex quinquefasciatus [4]; insect exposure after 0 hours): 23 min
Knock-down time KT50 (Culex quinquefasciatus [4]; insect exposure after 0 hours): 28 min
Knock-down time KT90 (Culex quinquefasciatus [4]; insect exposure after 0 hours): 35 min
% mortality 24 h (Culex quinquefasciatus [4]; insect exposure after 2 hours): 100%
% Knock-down 8 h (Culex quinquefasciatus [4]; insect exposure after 2 hours): 100%
Knock-down time KT10 (Culex quinquefasciatus [4]; insect exposure after 2 hours): 7 min
Knock-down time KT50 (Culex quinquefasciatus [4]; insect exposure after 2 hours): 11 min
Knock-down time KT90 (Culex quinquefasciatus [4]; insect exposure after 2 hours): 15 min
% mortality 24 h (Culex quinquefasciatus [4]; insect exposure after 4 hours): 100%
% Knock-down 8 h (Culex quinquefasciatus [4]; insect exposure after 4 hours): 100%
Knock-down time KT10 (Culex quinquefasciatus [4]; insect exposure after 4 hours): 8 min
Knock-down time KT50 (Culex quinquefasciatus [4]; insect exposure after 4 hours): 10 min
Knock-down time KT90 (Culex quinquefasciatus [4]; insect exposure after 4 hours): 14 min
